We go through 21 molecules from US20090069300A1, “ISOQUINOLINYL AND ISOINDOLINYL DERIVATIVES AS HISTAMINE-3 ANTAGONISTS” (Wyeth, priority 2007, published 2009).

The melting point is the temperature of the solid-liquid transition.

Each structure is given as a SMILES string. Structures can show the parent of a compound that is named as a salt.

Take `C[C@@H]1CCCN1CCN1CCc2cc(-c3ccc(C(=O)NC4CCCC4)cc3)ccc2C1=O` (as salt: hydrochloride) [Example 80, N-cyclopentyl-4-(2-{2-[(2R)-2-methylpyrrolidin-1-yl]ethyl}-1-oxo-1,2,3,4-tetrahydroisoquinolin-6-yl)benzamide]: the melting point lay in the range of 260 to 262 °C.

In turn, `C[C@H]1CCCN1C(=O)c1ccc(-c2ccc3c(c2)CCN(CCN2CCCC2)C3=O)cc1` (as salt: hydrochloride) [Example 81, 6-(4-{[(2S)-2-methylpyrrolidin-1-yl]carbonyl}phenyl)-2-(2-pyrrolidin-1-ylethyl)-3,4-dihydroisoquinolin-1(2H)-one] had a melting point of 171 to 172 °C.

Take `C[C@@H]1CCCN1C(=O)c1ccc(-c2ccc3c(c2)CCN(CCN2CCCC2)C3=O)cc1` (as salt: hydrochloride) [Example 82, 6-(4-{[(2R)-2-methylpyrrolidin-1-yl]carbonyl}phenyl)-2-(2-pyrrolidin-1-ylethyl)-3,4-dihydroisoquinolin-1(2H)-one]: the melting point lay within 170 to 171 °C.

Regarding `CNC(=O)c1ccc(-c2ccc3c(c2)C(=O)N(CCN2CCC[C@H]2C)CC3)cc1` (as salt: hydrochloride) [Example 83, N-methyl-4-(2-{2-[(2R)-2-methylpyrrolidin-1-yl]ethyl}-1-oxo-1,2,3,4-tetrahydroiso-quinolin-7-yl)benzamide], the melting point lay in the range of 262 to 263 °C.

As for `CC(C)NC(=O)c1ccc(-c2ccc3c(c2)C(=O)N(CCN2CCC[C@H]2C)CC3)cc1` (as salt: hydrochloride) [Example 85, N-isopropyl-4-(2-{2-[(2R)-2-methylpyrrolidin-1-yl]ethyl}-1-oxo-1,2,3,4-tetrahydroiso-quinolin-7-yl)benzamide], the melting point is 248 to 250 °C.

In the case of `C[C@@H]1CCCN1CCN1CCc2ccc(-c3ccc(C(=O)N4CCCC4)cc3)cc2C1=O` (as salt: hydrochloride) [Example 86, 2-{2-[(2R)-2-methylpyrrolidin-1-yl]ethyl}-7-[4-(pyrrolidin-1-ylcarbonyl)phenyl]-3,4-dihydroisoquinolin-1(2H)-one], the melting point was 214 to 215 °C.

Molecule `CNC(=O)c1ccc(Oc2ccc3c(c2)CCN(CCN2CCCC2)C3=O)nc1` (as salt: hydrochloride) [Example 101, N-Methyl-6-(1-oxo-2-(2-(pyrrolidin-1-yl)ethyl)-1,2,3,4-tetrahydro-isoquinolin-6-yloxy)nicotinamide hydrochloride] showed a melting point of 228 to 230 °C.

Regarding `CON(C)C(=O)c1ccc(-c2ccc3c(c2)CCN(CCN2CCCC2)C3=O)cc1` (as salt: hydrochloride) [Example 102, N-methoxy-N-methyl-4-(1-oxo-2-(2-(pyrrolidin-1-yl)ethyl)-1,2,3,4-tetrahydroisoqui-nolin-6-yl)benzamide], the melting point fell in the range of 190 to 191 °C.

As for `C[C@@H]1CCCN1CCN1CCc2cc(OCc3ccc(C#N)cc3)ccc2C1=O` (as salt: hydrochloride) [Example 120, (R)-4-((2-(2-(2-Methylpyrrolidin-1-yl)ethyl)-1-oxo-1,2,3,4-tetra-hydroisoquinolin-6-yloxy)methyl)benzonitrile hydrochloride], the melting point was in the range of 212 to 214 °C.

`O=C(NCc1cccs1)c1ccc(-c2ccc3c(c2)CCN(CCN2CCCC2)C3=O)cc1` (as salt: hydrochloride) [Example 121, 4-[1-oxo-2-(2-pyrrolidin-1-ylethyl)-1,2,3,4-tetrahydroisoquinolin-6-yl]-N-(2-thienylmethyl)benzamide] gave a melting point of 211 to 213.5 °C.

The molecule `O=C(c1ccc(-c2ccc3c(c2)CCN(CCN2CCCC2)C3=O)cc1)N1CCOCC1` (as salt: hydrochloride) [Example 122, 6-[4-(morpholin-4-ylcarbonyl)phenyl]-2-(2-pyrrolidin-1-ylethyl)-3,4-dihydroisoquinolin-1(2H)-one] showed a melting point of 272 to 274 °C.

In turn, `O=C(NCCCl)c1ccc(-c2ccc3c(c2)CCN(CCN2CCCC2)C3=O)cc1` (as salt: hydrochloride) [Example 123, N-(2-chloroethyl)-4-[1-oxo-2-(2-pyrrolidin-1-ylethyl)-1,2,3,4-tetrahydroisoquinolin-6-yl]benzamide] came in with a melting point of 236 to 237 °C.

`CCN(C)C(=O)c1ccc(-c2ccc3c(c2)CCN(CCN2CCCC2)C3=O)cc1` (as salt: hydrochloride) [Example 124, N-ethyl-N-methyl-4-[1-oxo-2-(2-pyrrolidin-1-ylethyl)-1,2,3,4-tetrahydroisoquinolin-6-yl]benzamide] registered a melting point of 200 to 201 °C.

On to `O=C(NCc1ccco1)c1ccc(-c2ccc3c(c2)CCN(CCN2CCCC2)C3=O)cc1` (as salt: hydrochloride) [Example 125, N-(2-furylmethyl)-4-[1-oxo-2-(2-pyrrolidin-1-ylethyl)-1,2,3,4-tetrahydroisoquinolin-6-yl]benzamide], for which the melting point was in the range of 211 to 213 °C.

Consider `COC[C@H](C)NC(=O)c1ccc(-c2ccc3c(c2)CCN(CCN2CCCC2)C3=O)cc1` (as salt: hydrochloride) [Example 126, N-[(1S)-2-methoxy-1-methylethyl]-4-[1-oxo-2-(2-pyrrolidin-1-ylethyl)-1,2,3,4-tetrahydroisoquinolin-6-yl]benzamide], for which the melting point was in the range of 232 to 233 °C.

As to `COC[C@@H]1CCCN1C(=O)c1ccc(-c2ccc3c(c2)CCN(CCN2CCCC2)C3=O)cc1` (as salt: hydrochloride) [Example 128, 6-(4-{[(2S)-2-(methoxymethyl)pyrrolidin-1-yl]carbonyl}phenyl)-2-(2-pyrrolidin-1-ylethyl)-3,4-dihydroisoquinolin-1(2H)-one], the melting point lay within 193 to 195 °C.

As to `O=C(Nc1nccs1)c1ccc(-c2ccc3c(c2)CCN(CCN2CCCC2)C3=O)cc1` (as salt: hydrochloride) [Example 130, 4-[1-oxo-2-(2-pyrrolidin-1-ylethyl)-1,2,3,4-tetrahydroisoquinolin-6-yl]-N-1,3-thiazol-2-ylbenzamide], the melting point was 284 to 285 °C.

Turning to `CN(C)C(=O)c1ccc(-c2ccc3c(c2)CCN(CCN2CCCC2)C3=O)c(F)c1` (as salt: hydrochloride) [Example 137, 3-fluoro-N,N-dimethyl-4-[1-oxo-2-(2-pyrrolidin-1-ylethyl)-1,2,3,4-tetrahydroisoquinolin-6-yl]benzamide], the melting point is 228 to 229 °C.

In turn, `O=C(c1ccc(-c2ccc3c(c2)CCN(CCN2CCCC2)C3=O)c(F)c1)N1CCCC1` (as salt: hydrochloride) [Example 138, 6-[2-fluoro-4-(pyrrolidin-1-ylcarbonyl)phenyl]-2-(2-pyrrolidin-1-ylethyl)-3,4-dihydroisoquinolin-1(2H)-one] returned a melting point of 225 to 226 °C.

For `CNC(=O)c1ccc(-c2ccc3c(c2)CCN(CCN2CCCC2)C3=O)c(F)c1` (as salt: hydrochloride) [Example 139, 3-fluoro-N-methyl-4-[1-oxo-2-(2-pyrrolidin-1-ylethyl)-1,2,3,4-tetrahydroisoquinolin-6-yl]benzaimde], the melting point lay in the range of 188 to 190 °C.

`CCNC(=O)c1ccc(-c2ccc3c(c2)CCN(CCN2CCCC2)C3=O)c(F)c1` (as salt: hydrochloride) [Example 140, N-ethyl-3-fluoro-4-[1-oxo-2-(2-pyrrolidin-1-ylethyl)-1,2,3,4-tetrahydroisoquinolin-6-yl]benzamide] had a melting point of 209 to 210 °C.
